System: imiquimod-induced psoriasis
Experiment: Imiquimod-induced psoriasis (Th17 inflammation) model in mice, topical treatment once daily D7-D13: PASI, modified PASI, body weight, use of enrichment, TEWL
Type: in vivo
Design: key to Mean score use enrichment: 0 = no use of dental rolls to 4 = use of all 4; key to PASI Mean score values: sum of erythema, induration, peeling scores, each 0-3 (0 = none)
Details: imiquimod-induced mice
Description: Thirty-six (36) female Balb/c mice are weighed and randomly divided into 9 groups (n=4) according to body weight on D1. For mice of native group 1 and tolerance groups 8 and 9, no induction of psoriasis is performed between D1 and D13. Psoriasis is induced in groups 2 to 7 by once daily topical application for 13 days (from day 1 to day 13) of 65 mg of Aldara™ cream (5.0% imiquimod) onto the shaved and epilated back of mice. Before the first treatment, a second randomization of mice of the 6 imiquimod-induced psoriasis groups is performed according to the severity of psoriasis (PASI), and also the body weight of mice. Starting on day 7 and until day 13, 100 mg of test formulations […] and 65 mg of vehicle (groups 1 and […]) are topically administered once daily for 7 consecutive days onto the shaved back skin of mice. Several measurements are taken during treatment period from day 7 to day 14: psoriasis index (PASI), body weight, use of enrichment and mortality. At the end of treatment period, TEWL is assessed, and blood and skin samples are collected. Histological analysis of skin samples is used for microscopic scoring of psoriasis and the determination of the thickness of parakeratosis and epidermis and blood analysis is used for assessing the level of proinflammatory biomarkers (cytokines assays). The effect of treatment of psoriasis induced mice with BETi formulations at the four dose levels are compared with Dermoval® cream containing 0.05% clobetasol propionate (reference) and vehicle (positive control) and also with healthy mice treated with vehicle (negative control).
PASI scoring takes into account the following 3 parameters: the presence of erythema on the skin, induration of the skin (thickening) and peeling of the skin at the area of the induction of psoriasis.
The presence of erythema on the skin at the area of induction of psoriasis with the following scoring grid: • 0=no or no more erythema on the skin, • 1=weak erythema on the skin, • 2=moderate erythema on the skin, • 3=important erythema on the skin.
The presence of induration of the skin at the area of induction of psoriasis with the following scoring grid: • 0=no or no more induration of the skin, • 1=weak induration of the skin, • 2=moderate induration of the skin, • 3=important induration of the skin.
The presence of peeling of the skin at the area of induction of psoriasis with the following scoring grid: • 0=no or no more dryness/peeling of the skin, • 1=weak dryness/peeling of the skin, • 2=moderate dryness/peeling of the skin, • 3=important dryness/peeling of the skin.
The sum of the mean scores of these 3 parameters result in the mean PASI score.
One of the issues with a steroid is that it causes skin thinning and continues to have an effect on no longer inflamed skin and the model set up and measurements above are not designed to reflect this negative effect. Therefore, a modified PASI (mPASI) is calculated in the same the manner as mean PASI score but excludes the scoring for induration (thickening of the skin).
Mice are weighed three times during the week of D1 to D7, and then daily during the week of D7 to D13, as well as on the day D14 when they are sacrificed. It should be noted that a characteristic body weight loss of mice is observed after the start of the induction of psoriasis, mainly during the first days following it. The body weight loss can reach between 10 to 15%.
For the duration of the experiment, dental rolls are used as enrichment and placed in each cage and replaced twice. Between D1 and D7, the number of dental rolls used by animals are determined twice in the morning, and are determined daily during D7 to D14, at the time of PASI or the tolerance assessment. The use of dental rolls is scored from 0=no use of dental rolls to 4=use of the 4 dental rolls. In the case where only half of a dental roll is used, a score of 0.5 is assigned. […]

SMILES: Cn1cc(-c2cccc(O)c2Oc2ccccc2)c2cc[nH]c2c1=O [BETi1]
- Modified PASI Mean score values (D 2, listed as BETI1 0.1%): 0.50
- PASI Mean score values (D 2, listed as BETI1 0.1%): 0.50
- Modified PASI Mean score values (D 2, listed as BETI1 1.0%): 1.00
- PASI Mean score values (D 2, listed as BETI1 1.0%): 1.00
- Mean score use enrichment (D 2, listed as BETi 0.001%): 0.25
- Mean score use enrichment (D 2, listed as BETi 0.01%): 0.50
- Mean score use enrichment (D 2, listed as BETi 0.1%): 0.75
- Modified PASI Mean score values (D 2, listed as BETi1 0.001%): 1.00
- PASI Mean score values (D 2, listed as BETi1 0.001%): 1.25
- Modified PASI Mean score values (D 2, listed as BETi1 0.01%): 0.25
- PASI Mean score values (D 2, listed as BETi1 0.01%): 0.25
- Mean score use enrichment (D 2, listed as BETi 1.0%): 0.75
- Modified PASI Mean score values (D 3, listed as BETI1 0.1%): 1.25
- PASI Mean score values (D 3, listed as BETI1 0.1%): 1.25
- Modified PASI Mean score values (D 3, listed as BETI1 1.0%): 1.25
- PASI Mean score values (D 3, listed as BETI1 1.0%): 1.25
- Mean score use enrichment (D 3, listed as BETi 0.001%): 0.75
- Mean score use enrichment (D 3, listed as BETi 0.01%): 0.50
- Mean score use enrichment (D 3, listed as BETi 0.1%): 1.25
- Modified PASI Mean score values (D 3, listed as BETi1 0.001%): 1.00
- PASI Mean score values (D 3, listed as BETi1 0.001%): 1.00
- Modified PASI Mean score values (D 3, listed as BETi1 0.01%): 1.25
- PASI Mean score values (D 3, listed as BETi1 0.01%): 1.25
- Mean score use enrichment (D 3, listed as BETi 1.0%): 1.00
- Modified PASI Mean score values (D 4): 2.75
- PASI Mean score values (D 4, listed as BETI1 0.1%): 3.00
- PASI Mean score values (D 4, listed as BETI1 1.0%): 3.25
- Mean score use enrichment (D 4, listed as BETi 0.001%): 1.00
- Mean score use enrichment (D 4, listed as BETi 0.01%): 0.75
- Mean score use enrichment (D 4, listed as BETi 0.1%): 1.25
- PASI Mean score values (D 4, listed as BETi1 0.001%): 3.25
- PASI Mean score values (D 4, listed as BETi1 0.01%): 3.25
- Mean score use enrichment (D 4, listed as BETi 1.0%): 1.00
- Modified PASI Mean score values (D 5, listed as BETI1 0.1%): 4.50
- PASI Mean score values (D 5, listed as BETI1 0.1%): 5.75
- Modified PASI Mean score values (D 5, listed as BETI1 1.0%): 4.00
- PASI Mean score values (D 5, listed as BETI1 1.0%): 5.50
- Mean score use enrichment (D 5, listed as BETi 0.001%): 1.25
- Mean score use enrichment (D 5, listed as BETi 0.01%): 0.75
- Mean score use enrichment (D 5, listed as BETi 0.1%): 0.50
- Modified PASI Mean score values (D 5, listed as BETi1 0.001%): 4.00
- PASI Mean score values (D 5, listed as BETi1 0.001%): 5.00
- Modified PASI Mean score values (D 5, listed as BETi1 0.01%): 4.00
- PASI Mean score values (D 5, listed as BETi1 0.01%): 5.25
- Mean score use enrichment (D 5, listed as BETi 1.0%): 1.50
- Modified PASI Mean score values (D 6, listed as BETI1 0.1%): 4.50
- PASI Mean score values (D 6, listed as BETI1 0.1%): 7.00
- Modified PASI Mean score values (D 6, listed as BETI1 1.0%): 4.75
- PASI Mean score values (D 6, listed as BETI1 1.0%): 7.25
- Mean score use enrichment (D 6, listed as BETi 0.001%): 1.25
- Mean score use enrichment (D 6, listed as BETi 0.01%): 1.25
- Mean score use enrichment (D 6, listed as BETi 0.1%): 0.75
- Modified PASI Mean score values (D 6, listed as BETi1 0.001%): 4.75
- PASI Mean score values (D 6, listed as BETi1 0.001%): 7.25
- Modified PASI Mean score values (D 6, listed as BETi1 0.01%): 4.75
- PASI Mean score values (D 6, listed as BETi1 0.01%): 7.00
- Mean score use enrichment (D 6, listed as BETi 1.0%): 1.50

From patent publication US20250339409A1, “USES OF PAN BET INHIBITORS” (VYNE THERAPEUTICS INC., priority 2021, published 2025)
